Activity calls are given as the source filed them.
What was measured:
[1] = growth suppression of PTEN-null colon cells, dose response, cell-based, HCT116 PTEN knockout (AID 1047); assay type: functional;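 also: HCT116 colon tumor cells with PTEN knocked out; cells exposed to compound for 60 hours before readout; potency for loss of cell viability measured by luminescence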
Vero [2] = assay: cells; assay type: functional, cell-based; conditions: Chlorocebus sabaeus
[3] = growth suppression of beta-catenin-knockout colon cells, dose response, cell-based, HCT116, human colon tumor (AID 1045); assay type: functional;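 also: HCT116 colon tumor cells with beta catenin knocked out; cells exposed to compound for 60 hours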
[4] = Luminescence Cell-Based Dose Retest to Confirm Inhibitors of Cancer Stem Cells. [Related pubchem assays (depositor defined):AID2717, AID2721]; assay type: functional; conditions: Homo sapiens
[5] = target: T1, 1-acylglycerol-3-phosphate O-acyltransferase ABHD5/Perilipin-5 (Homo sapiens, UniProt Q00G26+Q8WTS1); assay: Luminescence-based biochemical high throughput dose response assay for inhibitors of the interaction of the lipase co-activator protein, abhydrolase domain containing 5 (ABHD5) with perilipin-5 (MLDP; PLIN5) (2K validation set). [Related pubchem assays (depositor defined):AID493035, AID493241]
T1 sequence (Q00G26 whole entry): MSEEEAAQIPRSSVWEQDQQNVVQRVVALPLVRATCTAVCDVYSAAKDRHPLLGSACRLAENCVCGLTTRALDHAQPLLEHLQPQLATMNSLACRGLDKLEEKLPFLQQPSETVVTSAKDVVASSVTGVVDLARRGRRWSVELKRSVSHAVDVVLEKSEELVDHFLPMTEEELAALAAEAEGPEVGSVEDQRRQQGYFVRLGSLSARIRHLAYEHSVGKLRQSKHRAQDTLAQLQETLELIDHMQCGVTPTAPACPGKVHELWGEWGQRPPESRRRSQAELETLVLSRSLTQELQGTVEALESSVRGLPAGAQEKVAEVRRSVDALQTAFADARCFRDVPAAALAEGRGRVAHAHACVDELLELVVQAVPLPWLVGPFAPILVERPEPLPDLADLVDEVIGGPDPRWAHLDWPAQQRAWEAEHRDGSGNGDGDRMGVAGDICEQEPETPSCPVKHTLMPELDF
T1 sequence (Q8WTS1 whole entry): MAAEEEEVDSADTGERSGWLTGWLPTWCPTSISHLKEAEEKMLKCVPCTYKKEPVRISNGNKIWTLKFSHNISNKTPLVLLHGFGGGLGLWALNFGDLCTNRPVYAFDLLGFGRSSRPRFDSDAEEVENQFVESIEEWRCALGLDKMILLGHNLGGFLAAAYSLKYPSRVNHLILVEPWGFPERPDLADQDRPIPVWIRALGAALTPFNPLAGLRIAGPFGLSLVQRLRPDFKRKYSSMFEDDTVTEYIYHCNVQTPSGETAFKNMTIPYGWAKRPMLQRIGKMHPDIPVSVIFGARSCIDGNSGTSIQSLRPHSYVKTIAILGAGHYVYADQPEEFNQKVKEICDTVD

Protein skinhead-1 = target: T2, Protein skinhead-1 (Caenorhabditis elegans, UniProt P34707); assay type: functional
T2 sequence (P34707 whole entry): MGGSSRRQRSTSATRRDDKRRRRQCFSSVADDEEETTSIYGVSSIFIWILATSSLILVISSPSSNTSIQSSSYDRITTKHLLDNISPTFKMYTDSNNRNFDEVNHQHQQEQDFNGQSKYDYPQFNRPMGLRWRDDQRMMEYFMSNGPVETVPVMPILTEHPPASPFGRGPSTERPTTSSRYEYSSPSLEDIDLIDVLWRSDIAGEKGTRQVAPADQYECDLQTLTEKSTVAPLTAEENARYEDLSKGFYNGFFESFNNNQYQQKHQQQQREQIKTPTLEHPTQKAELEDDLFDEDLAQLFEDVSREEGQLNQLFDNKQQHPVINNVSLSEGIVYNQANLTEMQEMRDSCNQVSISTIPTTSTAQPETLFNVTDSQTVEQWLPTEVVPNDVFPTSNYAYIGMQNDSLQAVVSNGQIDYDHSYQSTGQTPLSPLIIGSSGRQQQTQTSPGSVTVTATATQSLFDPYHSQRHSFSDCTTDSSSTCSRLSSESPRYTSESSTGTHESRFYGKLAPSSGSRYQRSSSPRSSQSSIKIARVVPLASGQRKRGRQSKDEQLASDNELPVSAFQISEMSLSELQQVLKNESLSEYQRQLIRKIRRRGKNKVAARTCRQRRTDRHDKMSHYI

Perilipin-1/ABHD5 = target: T3, Perilipin-1/ABHD5 (Homo sapiens, UniProt O60240+Q8WTS1); assay: Luminescence-based biochemical high throughput dose response assay for inhibitors of the interaction of the lipase co-activator protein, abhydrolase domain containing 5 (ABHD5) with perilipin-1 (PLIN1) (2K validation set). [Related pubchem assays (depositor defined):AID493027, AID493057]
T3 sequence (Q8WTS1 whole entry): T1 sequence (Q8WTS1 whole entry)
T3 sequence (O60240 whole entry): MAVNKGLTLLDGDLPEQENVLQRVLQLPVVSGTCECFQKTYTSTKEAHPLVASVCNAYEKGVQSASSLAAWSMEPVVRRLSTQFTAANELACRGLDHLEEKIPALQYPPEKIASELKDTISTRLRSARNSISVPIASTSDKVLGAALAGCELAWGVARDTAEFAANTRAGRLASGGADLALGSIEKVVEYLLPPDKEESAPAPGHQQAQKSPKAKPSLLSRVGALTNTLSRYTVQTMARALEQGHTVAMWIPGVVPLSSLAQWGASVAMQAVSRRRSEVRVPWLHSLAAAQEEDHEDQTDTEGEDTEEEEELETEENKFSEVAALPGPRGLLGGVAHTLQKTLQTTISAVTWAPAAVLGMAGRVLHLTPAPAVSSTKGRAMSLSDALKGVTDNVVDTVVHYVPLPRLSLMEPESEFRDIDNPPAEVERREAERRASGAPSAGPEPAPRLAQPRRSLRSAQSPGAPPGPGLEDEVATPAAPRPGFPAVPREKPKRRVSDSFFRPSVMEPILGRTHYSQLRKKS

Vero [6] = assay: cells; assay type: functional; conditions: Chlorocebus sabaeus
[7] = Luminescence Cell-Based Dose Confirmation HTS to Identify Activators of 5'UTR Stem-Loop Driven Alpha-Synuclein mRNA Translation in H4 Neuroglioblastoma Cells. [Related pubchem assays: 1829 (Project Summary), 1814 (Primary HTS)]; assay type: functional
H4 = assay: Luminescence Cell-Based Dose Response HTS to Identify Activators of 5'UTR Stem-Loop Driven Prion Protein mRNA Translation in H4 Neuroglioblastoma Cells. [Related pubchem assays: 1829 (Project Summary), 1814 (Primary HTS)]; assay type: functional; conditions: Homo sapiens
[8] = Luminescence Cell-Based Dose Response HTS to Identify Activators of Luciferase Translation or Activity in H4 […] Cells. [Related pubchem assays: 1829 (Project Summary), 1814 (Primary HTS)]; assay type: functional
[9] = target: Heat shock protein HSP 90-alpha (Homo sapiens, UniProt P07900); assay type: functional, organism-based
[10] = Shn3 3'UTR reporter inhibitors, dose response, cell-based, Clone20 osteoblasts, firefly luciferase, cherry-picked (AID 624132); assay type: functional;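 also: firefly luciferase luminescence from reporter carrying the Shn3 3'UTR in osteoblasts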
[11] = target: T4, Voltage-gated N-type calcium channel alpha-1B subunit/Amyloid beta A4 precursor protein-binding family A member 1 (Homo sapiens, UniProt Q00975+Q02410); assay type: protein assay
T4 sequence (Q00975 whole entry): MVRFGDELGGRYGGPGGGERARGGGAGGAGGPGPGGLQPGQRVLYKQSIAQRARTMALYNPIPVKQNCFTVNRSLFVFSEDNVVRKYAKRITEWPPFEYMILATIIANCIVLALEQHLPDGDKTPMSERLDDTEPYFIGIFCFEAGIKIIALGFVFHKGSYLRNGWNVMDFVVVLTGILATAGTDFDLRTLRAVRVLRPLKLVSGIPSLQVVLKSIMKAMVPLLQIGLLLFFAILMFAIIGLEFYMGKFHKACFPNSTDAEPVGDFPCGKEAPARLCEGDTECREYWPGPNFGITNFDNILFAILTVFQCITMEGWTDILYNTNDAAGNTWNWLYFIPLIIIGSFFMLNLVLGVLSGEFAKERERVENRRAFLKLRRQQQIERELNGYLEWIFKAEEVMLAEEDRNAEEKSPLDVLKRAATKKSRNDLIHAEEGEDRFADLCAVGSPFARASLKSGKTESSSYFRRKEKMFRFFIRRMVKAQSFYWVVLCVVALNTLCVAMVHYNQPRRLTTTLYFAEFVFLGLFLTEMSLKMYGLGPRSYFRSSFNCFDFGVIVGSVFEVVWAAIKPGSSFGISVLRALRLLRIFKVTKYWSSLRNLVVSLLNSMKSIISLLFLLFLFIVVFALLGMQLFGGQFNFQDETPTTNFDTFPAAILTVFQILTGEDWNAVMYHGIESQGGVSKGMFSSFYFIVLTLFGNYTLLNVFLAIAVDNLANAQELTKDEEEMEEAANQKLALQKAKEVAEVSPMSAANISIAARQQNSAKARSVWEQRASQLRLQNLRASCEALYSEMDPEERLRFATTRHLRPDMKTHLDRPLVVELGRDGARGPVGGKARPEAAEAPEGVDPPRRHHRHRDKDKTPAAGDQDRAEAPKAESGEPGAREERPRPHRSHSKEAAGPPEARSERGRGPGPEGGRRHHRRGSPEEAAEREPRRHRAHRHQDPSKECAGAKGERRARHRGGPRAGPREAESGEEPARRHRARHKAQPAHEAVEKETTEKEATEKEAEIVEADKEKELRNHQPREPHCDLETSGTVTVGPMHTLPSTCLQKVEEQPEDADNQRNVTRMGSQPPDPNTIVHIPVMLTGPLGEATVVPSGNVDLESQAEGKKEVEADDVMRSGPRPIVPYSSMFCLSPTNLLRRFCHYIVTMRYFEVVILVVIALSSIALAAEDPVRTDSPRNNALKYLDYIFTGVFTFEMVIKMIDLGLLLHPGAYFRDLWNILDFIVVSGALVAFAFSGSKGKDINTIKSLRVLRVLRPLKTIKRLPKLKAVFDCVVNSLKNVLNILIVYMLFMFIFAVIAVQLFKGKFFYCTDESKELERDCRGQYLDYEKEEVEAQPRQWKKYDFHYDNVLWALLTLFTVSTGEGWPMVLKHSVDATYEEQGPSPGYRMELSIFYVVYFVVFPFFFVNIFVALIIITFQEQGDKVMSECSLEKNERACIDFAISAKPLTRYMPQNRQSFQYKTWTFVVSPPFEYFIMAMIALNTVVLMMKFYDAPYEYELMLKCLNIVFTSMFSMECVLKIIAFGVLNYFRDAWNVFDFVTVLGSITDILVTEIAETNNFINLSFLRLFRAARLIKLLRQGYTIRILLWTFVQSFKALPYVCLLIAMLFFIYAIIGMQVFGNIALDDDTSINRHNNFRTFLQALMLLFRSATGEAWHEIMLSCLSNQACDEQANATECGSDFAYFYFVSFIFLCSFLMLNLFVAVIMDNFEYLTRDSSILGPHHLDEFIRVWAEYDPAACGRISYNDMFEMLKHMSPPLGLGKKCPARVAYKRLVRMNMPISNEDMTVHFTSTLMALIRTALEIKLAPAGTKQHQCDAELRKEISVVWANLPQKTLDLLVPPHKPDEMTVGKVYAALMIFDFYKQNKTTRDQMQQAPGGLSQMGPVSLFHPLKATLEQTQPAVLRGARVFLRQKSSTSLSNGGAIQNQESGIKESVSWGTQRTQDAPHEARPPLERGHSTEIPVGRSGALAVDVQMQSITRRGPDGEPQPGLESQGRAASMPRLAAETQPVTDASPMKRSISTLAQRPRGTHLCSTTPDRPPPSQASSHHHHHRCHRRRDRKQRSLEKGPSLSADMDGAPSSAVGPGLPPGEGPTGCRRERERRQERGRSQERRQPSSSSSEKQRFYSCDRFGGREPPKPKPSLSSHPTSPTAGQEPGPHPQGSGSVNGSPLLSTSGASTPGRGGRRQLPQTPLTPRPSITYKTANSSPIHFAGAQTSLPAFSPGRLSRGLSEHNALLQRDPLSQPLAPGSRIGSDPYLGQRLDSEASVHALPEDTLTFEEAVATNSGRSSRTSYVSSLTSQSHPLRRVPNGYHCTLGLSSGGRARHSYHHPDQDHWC
T4 sequence (Q02410 whole entry): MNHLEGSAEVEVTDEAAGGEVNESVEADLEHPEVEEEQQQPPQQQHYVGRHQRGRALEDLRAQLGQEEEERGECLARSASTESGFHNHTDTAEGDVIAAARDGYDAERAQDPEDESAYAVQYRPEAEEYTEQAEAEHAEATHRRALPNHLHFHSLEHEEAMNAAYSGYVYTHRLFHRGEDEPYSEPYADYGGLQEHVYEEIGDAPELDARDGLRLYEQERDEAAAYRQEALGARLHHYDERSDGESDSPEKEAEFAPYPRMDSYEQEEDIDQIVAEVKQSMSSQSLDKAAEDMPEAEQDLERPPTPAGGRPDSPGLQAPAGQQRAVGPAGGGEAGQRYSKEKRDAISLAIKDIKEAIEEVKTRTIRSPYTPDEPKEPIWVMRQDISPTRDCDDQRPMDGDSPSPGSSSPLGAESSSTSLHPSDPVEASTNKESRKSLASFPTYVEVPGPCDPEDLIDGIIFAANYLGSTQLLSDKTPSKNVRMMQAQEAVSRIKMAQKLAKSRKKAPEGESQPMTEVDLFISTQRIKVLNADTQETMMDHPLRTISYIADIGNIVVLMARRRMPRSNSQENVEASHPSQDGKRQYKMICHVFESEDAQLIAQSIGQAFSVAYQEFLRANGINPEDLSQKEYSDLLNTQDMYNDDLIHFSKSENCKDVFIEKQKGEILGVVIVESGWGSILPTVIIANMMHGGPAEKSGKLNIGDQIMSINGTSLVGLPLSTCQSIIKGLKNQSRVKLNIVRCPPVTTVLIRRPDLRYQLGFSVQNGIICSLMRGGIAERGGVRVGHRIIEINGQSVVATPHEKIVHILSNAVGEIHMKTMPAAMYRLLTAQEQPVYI

[12] = Luminescence Cell-Based Dose Confirmation HTS to Identify Inhibitors of Platelet Dense Granule Release. [Related pubchem assays: 1663 (Primary HTS), 1678 (Summary of Project)]; assay type: functional
[13] = target: Luciferin 4-monooxygenase (Photinus pyralis, UniProt P08659); assay: firefly luciferase enzyme inhibitors, dose response, biochemical, luminescence (AID 1891)
Luciferin 4-monooxygenase, sequence (P08659 whole entry): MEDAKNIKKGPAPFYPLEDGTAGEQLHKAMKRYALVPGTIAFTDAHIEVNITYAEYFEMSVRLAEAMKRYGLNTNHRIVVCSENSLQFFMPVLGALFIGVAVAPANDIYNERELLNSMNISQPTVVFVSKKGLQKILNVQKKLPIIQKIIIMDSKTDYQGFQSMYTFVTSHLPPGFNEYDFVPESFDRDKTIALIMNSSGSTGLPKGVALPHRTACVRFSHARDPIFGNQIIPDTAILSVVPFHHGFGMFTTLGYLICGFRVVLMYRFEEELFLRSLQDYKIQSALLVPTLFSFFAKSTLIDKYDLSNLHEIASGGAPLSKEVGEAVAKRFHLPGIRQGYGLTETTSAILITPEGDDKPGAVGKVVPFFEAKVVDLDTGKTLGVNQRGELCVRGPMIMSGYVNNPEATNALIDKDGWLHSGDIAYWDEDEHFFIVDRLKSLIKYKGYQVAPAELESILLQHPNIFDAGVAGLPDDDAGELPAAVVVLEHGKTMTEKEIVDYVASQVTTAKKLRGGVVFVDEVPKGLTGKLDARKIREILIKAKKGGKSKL

[14] = control 3'UTR Renilla luciferase suppression, dose response, counter-screen for Shn3 inhibitor project, cell-based, Clone20-Shn3RL, cherry-picked (AID 624133); assay type: functional
[15] = HEp-2 cell cytotoxicity, dose response, cytotoxicity control for RSV inhibitor project, HTS (AID 2410); assay type: functional; conditions: human respiratory syncytial virus
HEK293 [16] = assay: cells; conditions: Homo sapiens
[17] = target: T4, Voltage-gated N-type calcium channel alpha-1B subunit/Amyloid beta A4 precursor protein-binding family A member 1; assay type: protein assay; remark: listed apart in the source
[18] = HepG2 cell cytotoxicity, dose response, cytotoxicity control for Shn3 inhibitor project, CellTiter-Glo, cherry-picked (AID 624134); assay type: functional, cell-based
HEK293 [19] = assay: cells; conditions: Homo sapiens; remark: listed apart in the source
BJ [20] = assay: cytotoxicity toward BJ-TERT-LT-ST fibroblasts, dose response, cell-based, RAS-independent, luminescence (AID 1935); assay type: functional; conditions: Homo sapiens;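 also: BJ fibroblasts immortalized with TERT plus LT and ST oncogenes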
[21] = cytotoxicity toward DRD oncogenic fibroblasts, dose response, cell-based, non-viral oncogenic, luminescence (AID 1934); assay type: functional; conditions: Homo sapiens
[22] = Luminescence Cell-Based Dose Response HTS to Identify Inhibitors of 5'UTR Stem-Loop Driven Prion Protein mRNA Translation in H4 Neuroglioblastoma Cells. [Related pubchem assays: 1827 (Project Summary), 1813 (Primary HTS)]; assay type: functional
BJ [23] = assay: cells; assay type: functional, cell-based; conditions: Homo sapiens
BJ [24] = assay: cytotoxicity toward BJ-TERT fibroblasts, dose response, cell-based, RAS-independent, luminescence (AID 1933); assay type: functional; conditions: Homo sapiens
[25] = inhibitors of firefly luciferase expression or activity, dose response, H4 neuroglioma cells, luminescence (AID 1990); assay type: functional, cell-based
[26] = target: T5, Short transient receptor potential channel 4 (Mus musculus, UniProt Q9QUQ5); assay: mouse TRPC4 channel inhibitors, dose response, cell-based, HEK293 TRPC4/mu-opioid, Fluo-4 calcium (AID 434942); assay type: functional;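 also: potency of inhibitors blocking the TRPC4 calcium response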
T5 sequence (Q9QUQ5 whole entry): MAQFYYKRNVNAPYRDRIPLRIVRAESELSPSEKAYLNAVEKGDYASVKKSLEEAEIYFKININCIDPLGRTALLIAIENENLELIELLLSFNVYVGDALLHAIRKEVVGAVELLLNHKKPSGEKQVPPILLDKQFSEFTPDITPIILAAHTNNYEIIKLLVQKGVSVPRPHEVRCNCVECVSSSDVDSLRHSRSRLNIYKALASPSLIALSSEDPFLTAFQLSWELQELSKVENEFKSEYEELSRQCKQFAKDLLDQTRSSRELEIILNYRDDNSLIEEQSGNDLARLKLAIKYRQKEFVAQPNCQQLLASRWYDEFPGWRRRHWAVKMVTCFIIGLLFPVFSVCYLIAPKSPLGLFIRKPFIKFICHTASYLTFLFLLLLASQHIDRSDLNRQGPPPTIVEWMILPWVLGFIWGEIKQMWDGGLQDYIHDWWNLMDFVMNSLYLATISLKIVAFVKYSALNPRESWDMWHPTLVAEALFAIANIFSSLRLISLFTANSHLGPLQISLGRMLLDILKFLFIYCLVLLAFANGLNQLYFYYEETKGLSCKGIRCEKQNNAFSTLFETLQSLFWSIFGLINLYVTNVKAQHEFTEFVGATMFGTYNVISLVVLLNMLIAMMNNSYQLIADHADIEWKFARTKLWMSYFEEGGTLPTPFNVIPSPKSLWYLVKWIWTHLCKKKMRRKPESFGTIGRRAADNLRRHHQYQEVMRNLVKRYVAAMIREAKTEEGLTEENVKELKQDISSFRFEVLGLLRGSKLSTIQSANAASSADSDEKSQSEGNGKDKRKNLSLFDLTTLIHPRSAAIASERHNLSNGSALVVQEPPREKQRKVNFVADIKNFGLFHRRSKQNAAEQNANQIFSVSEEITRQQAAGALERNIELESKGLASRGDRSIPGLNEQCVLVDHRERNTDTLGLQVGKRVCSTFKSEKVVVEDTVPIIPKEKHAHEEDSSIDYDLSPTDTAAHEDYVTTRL

HeLa = assay: HeLa cell cytotoxicity, dose response, cytotoxicity control for MITF activator project, CellTiter-Glo luminescence, cherry-pick samples (AID 540259); assay type: functional, cell-based; conditions: Homo sapiens

Structure (SMILES): O=C(/C=C/c1ccccc1)/C=C/c1ccccc1
- EC50 [1]: 1.22 µM (active)
- IC50 (Vero [2]): > 25 µM (active)
- EC50 [3]: 0.953 µM (active)
- AC50 [4]: 1.42 µM (active)
- IC50 [5]: 1.48 µM (active)
- IC50 (Protein skinhead-1): 11.6 µM (active)
- IC50 (Perilipin-1/ABHD5): 1.52 µM (active)
- CC50 (Vero [6]): 19.1 µM (active)

Structure (SMILES): O=C(c1ccc(Cl)cc1)C(CN1CCCC1)c1ccccc1 (stereo not drawn)
- IC50 (Vero [2]): > 25 µM (active)
- EC50 [7]: > 120 µM (not active)
- CC50 (Vero [6]): 23 µM (active)
- EC50 (H4): > 120 µM (not active)
- EC50 [8]: > 120 µM (not active)

Structure (SMILES): Cc1ccc(NN2C(=O)C=C(c3ccc(Cl)cc3)C2=O)cc1
- AC50 [9]: < 0.195 µM (active)
- EC50 [1]: 19.9 µM (active)
- AC50 [10]: 6.53 µM (active)
- IC50 [11]: > 50 µM (inactive)
- EC50 [3]: 24.1 µM (active)
- EC50 [12]: 9.18 µM (active)
- EC50 [13]: > 112 µM (not active)
- AC50 [14]: 12.6 µM (active)
- CC50 [15]: 10.8 µM (active)
- EC50 (HEK293 [16]): > 59.6 µM (inactive)
- IC50 [17]: 11 µM (active)
- AC50 [18]: 19.8 µM (active)
- EC50 (HEK293 [19]): > 59.6 µM (inactive)

Structure (SMILES): CC(C)c1ccc(NC(=O)[C@H](Cc2c[nH]c3ccccc23)NC(=O)[C@@H]2Cc3ccccc3CN2)cc1
- EC50 (BJ [20]): > 150 µM (not active)
- IC50 (Vero [2]): 5.06 µM (active)
- EC50 [21]: 119 µM (active)
- EC50 [22]: 20.1 µM (active)
- CC50 (Vero [6]): 23.5 µM (active)
- EC50 (BJ [23]): 70.9 µM (active)
- EC50 (BJ [24]): > 150 µM (not active)
- EC50 [25]: > 120 µM (not active)

Structure (SMILES): COCCn1c(SCC(=O)Nc2ccccc2OC)nc2c3ccccc3nc-2c1O
- EC50 [26]: 3.76 µM (active)
- EC50 (HEK293 [16]): > 59.6 µM (inactive)
- EC50 (HEK293 [19]): > 59.6 µM (inactive)

Structure (SMILES): Cn1cccc1C(=O)C(=O)Nc1ccc(F)c(F)c1
- AC50 (HeLa): 72.6 µM (active)
